Tested on: corn planthopper (Peregrinus maidis)
Experiment: Test F: control of corn planthopper through contact and/or systemic means on corn (maize) plant
Assay type: in vivo
Settings: sprayed at 250 ppm, nymphs, 6 days, visually assessed
Protocol: Test compounds were formulated using a solution containing 10% acetone, 90% water and 300 ppm X-77™ Spreader Lo-Foam Formula non-ionic surfactant containing alkylarylpolyoxyethylene, free fatty acids, glycols and isopropanol (Loveland Industries, Inc.). The formulated compounds were applied in 1 mL of liquid through a SUJ2 atomizer nozzle with ⅛ JJ custom body (Spraying Systems Co.) positioned 1.27 cm (0.5 inches) above the top of each test unit. All experimental compounds in this screen were sprayed at 250 ppm, replicated three times. After spraying of the formulated test compound, each test unit was allowed to dry for 1 hour and then a black, screened cap was placed on top. The test units were held for 6 days in a growth chamber at 19-21° C. and 50-70% relative humidity. Each test unit was then visually assessed for insect mortality.
For evaluating control of corn planthopper (Peregrinus maidis) through contact and/or systemic means, the test unit consisted of a small open container with a 3-4 day old corn (maize) plant (spike) inside. White sand was added to the top of the soil prior to application. Test compounds were formulated and sprayed at 250 ppm and replicated three times as described for Test C. […] Each test unit was then visually assessed for insect mortality.

## Cc1cc(C#N)cc(C(N)=O)c1NC(=O)c1cc(Br)nn1-c1ccccc1Cl [Compound 67]
  mortality: at least 80%
